Measured values published in PubChem BioAssay (NCI).
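Where inhibition never reached the appropriate level, the endpoint shown equals the highest concentration tested. Otherwise, values were interpolated linearly from a five-concentration, 48-hour dose response in 96-well plates. At the GI50, growth is halved. TGI is the concentration that stops growth completely.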

How the values were obtained:
Experiment in all cases: DTP human tumour cell line panel, 48 h
[1] = test system: 786-0 renal
[2] = test system: A498 renal
[3] = test system: A549 NSCLC
[4] = test system: ACHN renal
[5] = test system: BT-549 breast
[6] = test system: CAKI-1 renal
[7] = test system: CCRF-CEM leukemia
[8] = test system: COLO 205 colon
[9] = test system: DU-145 prostate
[10] = test system: EKVX NSCLC
[11] = test system: HCC-2998 colon
[12] = test system: HCT-116 colon
[13] = test system: HCT-15 colon
[14] = test system: HL-60(TB) leukemia
[15] = test system: HOP-62 NSCLC
[16] = test system: HOP-92 NSCLC
[17] = test system: HS 578T breast
[18] = test system: HT29 colon
[19] = test system: IGROV1 ovarian
[20] = test system: K-562 leukemia
[21] = test system: KM12 colon
[22] = test system: LOX IMVI melanoma
[23] = test system: M14 melanoma
[24] = test system: MALME-3M melanoma
[25] = test system: MCF7 breast
[26] = test system: MDA-MB-231 breast
[27] = test system: MDA-MB-435
[28] = test system: MDA-N
[29] = test system: MOLT-4 leukemia
[30] = test system: NCI-H226 lung
[31] = test system: NCI-H23 lung
[32] = test system: NCI-H460 lung
[33] = test system: NCI-H522 lung
[34] = test system: NCI/ADR-RES ovarian
[35] = test system: OVCAR-3 ovarian
[36] = test system: OVCAR-4 ovarian
[37] = test system: OVCAR-5 ovarian
[38] = test system: OVCAR-8 ovarian
[39] = test system: PC-3 prostate
[40] = test system: RPMI-8226 leukemia
[41] = test system: RXF 393 renal
[42] = test system: SF-268 CNS
[43] = test system: SF-295 CNS
[44] = test system: SF-539 CNS
[45] = test system: SK-MEL-2 melanoma
[46] = test system: SK-MEL-28 melanoma
[47] = test system: SK-MEL-5 melanoma
[48] = test system: SK-OV-3 ovarian
[49] = test system: SN12C renal
[50] = test system: SNB-19 CNS
[51] = test system: SNB-75 CNS
[52] = test system: SR leukemia
[53] = test system: SW-620 colon
[54] = test system: T-47D breast
[55] = test system: TK-10 renal
[56] = test system: U251 CNS
[57] = test system: UACC-257 melanoma
[58] = test system: UACC-62 melanoma
[59] = test system: UO-31 renal

## C=C1C[C@@H](O)[C@@H](Br)C(C)(C)[C@]12CCC(C)(Cl)C(Br)C2 (some centres undefined)
[1]
  TGI: > 78.2 µM
[2]
  TGI: 97.5 µM
[3]
  TGI: > 86 µM
[4]
  TGI: > 87.5 µM
[5]
  TGI: > 100 µM
[6]
  TGI: > 90.4 µM
[7]
  TGI: > 100 µM
[8]
  TGI: > 33.7 µM
[9]
  TGI: > 100 µM
[10]
  TGI: 33.4 µM
[11]
  TGI: 35.3 µM
[12]
  TGI: > 100 µM
[13]
  TGI: > 100 µM
[14]
  TGI: 80.8 µM
[15]
  TGI: > 65.2 µM
[16]
  TGI: > 73.6 µM
[17]
  TGI: > 100 µM
[18]
  TGI: > 100 µM
[19]
  TGI: 46.4 µM
[20]
  TGI: > 100 µM
[21]
  GI50: 0.793 µM
  TGI: 3.8 µM
[22]
  TGI: 49.5 µM
[23]
  TGI: > 100 µM
[24]
  TGI: 59.4 µM
[25]
  TGI: > 79.3 µM
[26]
  TGI: > 85.2 µM
[27]
  TGI: > 71.2 µM
[28]
  TGI: > 59.8 µM
[29]
  TGI: > 100 µM
[30]
  TGI: > 84.8 µM
[31]
  TGI: > 74.9 µM
[32]
  TGI: > 84.5 µM
[33]
  TGI: 44.1 µM
[34]
  TGI: 98 µM
[35]
  TGI: 37.4 µM
[36]
  TGI: > 100 µM
[37]
  TGI: 19.8 µM
[38]
  TGI: > 100 µM
[39]
  TGI: 8.17 µM
[40]
  TGI: > 100 µM
[41]
  TGI: > 76.1 µM
[42]
  TGI: > 77.4 µM
[43]
  TGI: > 85.3 µM
[44]
  TGI: 32.3 µM
[45]
  TGI: 32.3 µM
[46]
  TGI: > 100 µM
[47]
  TGI: 23.4 µM
[48]
  TGI: > 100 µM
[49]
  TGI: 36 µM
[50]
  TGI: > 31.6 µM
[51]
  TGI: > 71.5 µM
[52]
  TGI: > 100 µM
[53]
  TGI: > 100 µM
[54]
  TGI: > 100 µM
[55]
  TGI: > 100 µM
[56]
  TGI: > 55.9 µM
[57]
  TGI: > 70.7 µM
[58]
  TGI: > 100 µM
[59]
  TGI: > 100 µM

## N#CC(=S)Nc1ccc(Cl)c(Cl)c1
[1]
  TGI: > 66.9 µM
[2]
  TGI: 51.8 µM
[3]
  TGI: > 100 µM
[4]
  TGI: 82.5 µM
[5]
  TGI: > 55.1 µM
[6]
  TGI: 55.1 µM
[7]
  TGI: 15.2 µM
[8]
  TGI: 49.5 µM
[9]
  TGI: > 100 µM
[10]
  TGI: 61.1 µM
[11]
  TGI: 34.8 µM
[12]
  TGI: > 50 µM
[13]
  TGI: 49.6 µM
[14]
  GI50: 11.8 µM
  TGI: 40.9 µM
[15]
  TGI: 99.5 µM
[16]
  TGI: 9.59 µM
[17]
  GI50: 11.3 µM
  TGI: > 100 µM
[18]
  TGI: 55.4 µM
[19]
  TGI: 53.8 µM
[20]
  TGI: 46.9 µM
[21]
  TGI: > 95.6 µM
[22]
  TGI: 66.2 µM
[23]
  TGI: > 60.6 µM
[24]
  TGI: > 54.7 µM
[25]
  TGI: > 73.4 µM
[26]
  TGI: 43.4 µM
[27]
  TGI: > 70.5 µM
[28]
  TGI: 88.3 µM
[29]
  TGI: 43.5 µM
[30]
  TGI: 60.5 µM
[31]
  TGI: > 59.2 µM
[32]
  GI50: 16 µM
  TGI: > 100 µM
[33]
  GI50: 3.73 µM
  TGI: 24.2 µM
[34]
  TGI: 65.4 µM
[35]
  TGI: 54.3 µM
[36]
  GI50: 5.67 µM
  TGI: > 100 µM
[37]
  TGI: 55.9 µM
[38]
  TGI: > 87.1 µM
[39]
  TGI: 44.8 µM
[40]
  TGI: 13.4 µM
[41]
  TGI: 52.4 µM
[42]
  TGI: > 94.5 µM
[43]
  TGI: 57.8 µM
[44]
  TGI: 48.5 µM
[45]
  TGI: 33.2 µM
[46]
  TGI: > 62.7 µM
[47]
  TGI: > 51.3 µM
[48]
  TGI: 61.6 µM
[49]
  TGI: > 68.5 µM
[50]
  TGI: > 100 µM
[51]
  TGI: 74.7 µM
[52]
  TGI: 67.4 µM
[53]
  TGI: > 100 µM
[54]
  TGI: > 74.8 µM
[55]
  TGI: > 84.6 µM
[56]
  TGI: > 85.1 µM
[57]
  TGI: > 54.7 µM
[58]
  TGI: 34.1 µM
[59]
  GI50: 7.63 µM
  TGI: 51.6 µM

## O=C(O)C(CSC(c1ccccc1)(c1ccccc1)c1ccccc1)N=Cc1cccs1 (centres undefined)
[1]
  TGI: > 53.2 µM
[2]
  TGI: > 96.8 µM
[3]
  TGI: > 100 µM
[4]
  TGI: > 100 µM
[5]
  TGI: > 27.5 µM
[6]
  TGI: > 54.7 µM
[7]
  TGI: > 100 µM
[8]
  TGI: 6.49 µM
[9]
  TGI: > 38.1 µM
[10]
  TGI: > 100 µM
[11]
  TGI: 27.7 µM
[12]
  TGI: > 56.2 µM
[13]
  TGI: > 100 µM
[14]
  TGI: 26.6 µM
[15]
  TGI: > 100 µM
[16]
  TGI: > 84 µM
[17]
  TGI: > 34.2 µM
[18]
  TGI: 18.6 µM
[19]
  TGI: > 100 µM
[20]
  TGI: > 100 µM
[21]
  TGI: > 60.7 µM
[22]
  TGI: > 59.8 µM
[23]
  TGI: 5.11 µM
[24]
  TGI: > 69.5 µM
[25]
  TGI: > 56 µM
[26]
  TGI: 7.01 µM
[27]
  TGI: 1.21 µM
[28]
  TGI: 1.94 µM
[29]
  TGI: > 75.7 µM
[30]
  TGI: > 96.7 µM
[31]
  TGI: 43.3 µM
[32]
  TGI: > 48.9 µM
[33]
  TGI: > 20.1 µM
[34]
  TGI: 63.8 µM
[35]
  TGI: 19.1 µM
[36]
  TGI: > 100 µM
[37]
  TGI: > 100 µM
[38]
  TGI: 42.3 µM
[39]
  TGI: > 42.4 µM
[40]
  TGI: > 100 µM
[41]
  TGI: > 19.6 µM
[42]
  TGI: > 40.2 µM
[43]
  TGI: > 100 µM
[44]
  TGI: 9.21 µM
[45]
  TGI: 27.4 µM
[46]
  TGI: > 100 µM
[47]
  TGI: > 24.7 µM
[48]
  TGI: > 67.5 µM
[49]
  TGI: 98.1 µM
[50]
  TGI: > 100 µM
[51]
  TGI: > 79.5 µM
[52]
  TGI: > 100 µM
[53]
  TGI: > 100 µM
[54]
  TGI: > 100 µM
[55]
  TGI: > 100 µM
[56]
  TGI: > 62.4 µM
[57]
  TGI: > 100 µM
[58]
  TGI: > 78.3 µM
[59]
  TGI: > 100 µM
